In patent US10954216B2, “BMP-signal-inhibiting compound” (RIKEN, priority 2016, dated 2021) one finds IC50 and inhibition data, which are given here for 28 compounds.

The target of assay [1] is human ALK2 (Homo sapiens (Human), UniProt Q04771). In words: ALK2 enzyme inhibitory effect (33P-ATP kinase assay, Reaction Biology). The format is biochemical. To be noted: ALK2, 10 μM ATP, 20 μM casein. The source says: (§1) ALK Enzyme Inhibitory Effect
(§2) Evaluation conditions were described in the following web pages. http://www.reactionbiology.corrilwebapps/site/Kinase_Assay_Protocol.aspx http://www.reactionbiology.corrilwebapps/site/KinaseDetail.aspx?page=Kinases&id=1

Assay [2] relates to BMP signal in MDA-231-D-BREFluc/Rluc cells. The experiment in a line: BMP signal inhibitory effect (AlphaScreen SureFire SMAD1 p-Ser463/465, BMP-6 stimulation). The format is cell-based. Summed up:
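Read-out was phospho-SMAD1 (Ser463/465) by AlphaScreen SureFire after 30 min BMP-6 stimulation at 37° C. Before stimulation, MDA-231-D-BREFluc/Rluc cells were incubated with test compound at 37° C for 2 h.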

For assay [3], the target named is human ALK3 (Homo sapiens (Human), UniProt P36894). The experiment in a line: ALK3 enzyme inhibitory effect (33P-ATP kinase assay, Reaction Biology). The format is biochemical. To be noted: for inhibition at 0.3 µM: read-out: Inhibition rate at 300 nM.
Source text: as §1, §2

The target of assay [4] is human ALK6 (Homo sapiens (Human), UniProt O00238). The experiment in a line: ALK6 enzyme inhibitory effect (33P-ATP kinase assay, Reaction Biology). Type of assay: biochemical. The following applies: for inhibition at 0.37 µM: ALK6, test compound 370 nM (asterisk footnote), read-out: inhibition rate at 370 nM; for inhibition at 0.3 µM: read-out: Inhibition rate at 300 nM.
Source text: as §1, §2

Where [5] appears, read: BMP-6 stimulated MDA-231-D-BREFluc/Rluc cells, phospho-SMAD1 AlphaScreen, read-out: IC50.

Read-outs that look alike come from different tables or passages of the source.

Sequence of human ALK3 (P36894 24-532): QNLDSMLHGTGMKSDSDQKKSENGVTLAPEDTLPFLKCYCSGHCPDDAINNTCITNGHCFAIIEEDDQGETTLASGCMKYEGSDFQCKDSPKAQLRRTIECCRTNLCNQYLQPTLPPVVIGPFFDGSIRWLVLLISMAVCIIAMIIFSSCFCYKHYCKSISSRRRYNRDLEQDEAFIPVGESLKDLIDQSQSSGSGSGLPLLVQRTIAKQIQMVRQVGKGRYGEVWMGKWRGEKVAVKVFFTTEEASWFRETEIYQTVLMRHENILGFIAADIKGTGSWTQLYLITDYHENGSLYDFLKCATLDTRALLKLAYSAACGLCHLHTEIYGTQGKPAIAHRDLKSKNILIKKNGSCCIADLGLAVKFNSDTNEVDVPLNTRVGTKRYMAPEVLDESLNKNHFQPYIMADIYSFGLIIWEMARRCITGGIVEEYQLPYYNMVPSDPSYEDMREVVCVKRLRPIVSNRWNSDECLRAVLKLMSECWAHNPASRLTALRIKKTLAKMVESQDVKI
Sequence of human ALK2 (Q04771 21-509): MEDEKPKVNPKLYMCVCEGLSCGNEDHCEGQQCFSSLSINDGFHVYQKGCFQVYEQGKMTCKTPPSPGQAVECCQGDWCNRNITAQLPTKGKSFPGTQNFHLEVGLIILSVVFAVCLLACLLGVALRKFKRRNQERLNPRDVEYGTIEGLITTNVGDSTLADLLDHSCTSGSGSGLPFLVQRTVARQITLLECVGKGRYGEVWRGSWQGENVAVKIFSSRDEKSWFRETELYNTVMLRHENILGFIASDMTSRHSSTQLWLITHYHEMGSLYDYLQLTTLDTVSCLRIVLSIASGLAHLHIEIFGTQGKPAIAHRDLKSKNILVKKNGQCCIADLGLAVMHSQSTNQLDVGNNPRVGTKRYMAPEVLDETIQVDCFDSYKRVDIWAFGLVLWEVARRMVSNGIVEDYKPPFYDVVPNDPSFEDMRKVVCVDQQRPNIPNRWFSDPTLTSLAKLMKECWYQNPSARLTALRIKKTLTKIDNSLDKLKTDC
Sequence of human ALK6 (O00238 14-502): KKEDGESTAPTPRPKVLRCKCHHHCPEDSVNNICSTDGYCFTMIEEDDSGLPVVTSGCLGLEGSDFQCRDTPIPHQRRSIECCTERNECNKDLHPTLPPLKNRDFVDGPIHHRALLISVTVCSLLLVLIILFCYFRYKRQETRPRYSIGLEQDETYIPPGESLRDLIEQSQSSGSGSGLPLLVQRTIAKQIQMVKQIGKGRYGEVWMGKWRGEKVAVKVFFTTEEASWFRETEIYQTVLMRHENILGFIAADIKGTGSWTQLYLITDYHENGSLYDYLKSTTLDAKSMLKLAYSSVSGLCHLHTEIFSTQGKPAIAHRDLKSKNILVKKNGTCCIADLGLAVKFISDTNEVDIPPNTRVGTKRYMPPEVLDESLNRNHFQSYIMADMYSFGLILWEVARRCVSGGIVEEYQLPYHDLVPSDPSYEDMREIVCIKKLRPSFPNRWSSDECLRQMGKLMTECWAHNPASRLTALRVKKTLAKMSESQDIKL

On to `CCn1cc(-c2ccnc(Nc3ccc(N4CCN(C(C)C)CC4)cc3)n2)c(-c2cccnc2)n1` [Example 16, 4-(1-ethyl-3-(pyridin-3-yl)-1H-pyrazol-4-yl)-N-(4-(4-isopropylpiperazin-1-yl)phenyl)pyrimidin-2-amine], for which the IC50 is 6.6 nM in assay [1] and 12.8 nM in assay [2] (setting [5]). `CCn1cc(-c2ccnc(Nc3ccc(C(N)=O)cc3)n2)c(-c2cccnc2)n1` [Example 23, 4-((4-(1-Ethyl-3-(pyridin-3-yl)-1H-pyrazol-4-yl)pyrimidin-2-yl)amino)benzamide]: the IC50 in assay [2] (setting [5]) is 33.8 nM. Besides, the inhibition at 0.3 µM in assay [3] (ALK3, test compound 300 nM) was determined as 52%.

Regarding `c1cncc(-c2n[nH]cc2-c2ccnc(Nc3ccc(OCCN4CCOCC4)cc3)n2)c1` [Example 25, N-(4-(2-morpholinoethoxy)phenyl)-4-(3-(pyridin-3-yl)-1H-pyrazol-4-yl)pyrimidin-2-amine], the IC50 in assay [2] (setting [5]) was found to be 48.5 nM. In addition, the inhibition at 0.37 µM in assay [4] was 47.7%.

With `CCn1cc(-c2ccc(Nc3nccc(-c4cn(CC)nc4-c4cccnc4)n3)cc2)cn1` [Example 27, N-(4-(1-ethyl-1H-pyrazol-4-yl)phenyl)-4-(1-ethyl-3-(pyridin-3-yl)-1H-pyrazol-4-yl)pyrimidin-2-amine], the IC50 was 17.7 nM in assay [1] and 58.5 nM in assay [2] (setting [5]). `CCn1cc(-c2ccnc(Nc3ccc(-c4cnn(CC(F)F)c4)cc3)n2)c(-c2cccnc2)n1` [Example 29, N-(4-(1-(2,2-Difluoroethyl)-1H-pyrazol-4-yl)phenyl)-4-(1-ethyl-3-(pyridin-3-yl)-1H-pyrazol-4-yl)pyrimidin-2-amine]: in assay [2] (setting [5]), the IC50 amounted to 29.4 nM. Moreover, the inhibition at 0.3 µM in assay [3] (ALK3, test compound 300 nM) was 66.1%; in assay [4] (ALK6, test compound 300 nM), 91.3%. On to `CCn1cc(-c2ccnc(Nc3ccc(N4CCN(CC5CC5)CC4)cc3)n2)c(-c2cccnc2)n1` [Example 33, N-(4-(4-(Cyclopropylmethyl)piperazin-1-yl)phenyl)-4-(1-ethyl-3-(pyridin-3-yl)-1H-pyrazol-4-yl)pyrimidin-2-amine], for which the IC50 in assay [1] was determined as 6.1 nM; in assay [2] (setting [5]), 7.8 nM. With `COCCN1CCN(c2ccc(Nc3nccc(-c4cn(CCOC)nc4-c4cccnc4)n3)cc2)CC1` [Example 37, 4-(1-(2-Methoxyethyl)-3-(pyridin-3-yl)-1H-pyrazol-4-yl)-N-(4-(4-(2-methoxyethyl)-piperazin-1-yl)phenyl)pyrimidin-2-amine], the results for the IC50 in assay [1] and in assay [2] (setting [5]) were 10.4 nM and 31.3 nM, respectively. As to `CCn1cc(-c2ccnc(Nc3cccc(CN4CCOCC4)c3)n2)c(-c2cccnc2)n1` [Example 41, 4-(1-ethyl-3-(pyridin-3-yl)-1H-pyrazol-4-yl)-N-(3-(morpholinomethyl)phenyl)pyrimidin-2-amine], the IC50 in assay [1] was found to be 68 nM; in assay [2] (setting [5]), 11.9 nM. Besides, the inhibition at 0.3 µM in assay [4] (ALK6, test compound 300 nM) came to 78%. Take `CCn1cc(-c2ccnc(Nc3ccc(N4CCN(C)CC4)cc3)n2)c(-c2cccnc2)n1` [Example 46, 4-(1-Ethyl-3-(pyridin-3-yl)-1H-pyrazol-4-yl)-N-(4-(4-methylpiperazin-1-yl)phenyl)pyrimidin-2-amine]: the values for the IC50 in assay [1] and in assay [2] (setting [5]) were 25.5 nM and 18.8 nM, respectively. `CCn1cc(-c2ccnc(Nc3ccc(S(=O)(=O)N(C)C4CCN(C(C)C)CC4)cc3)n2)c(-c2cccnc2)n1` [Example 124]: the IC50 was 61.5 nM in assay [1] and 16 nM in assay [2] (setting [5]). Further, in assay [4] (ALK6, test compound 300 nM), the inhibition at 0.3 µM is 87%. Consider `CN1CCN(c2ccc(Nc3nccc(-c4c[nH]nc4-c4cccnc4)n3)cc2)CC1` [Example 127, N-(4-(4-Methylpiperazin-1-yl)phenyl)-4-(3-(pyridin-3-yl)-1H-pyrazol-4-yl)pyrimidin-2-amine], for which, in assay [2] (setting [5]), the IC50 amounted to 22.4 nM. Further, the inhibition at 0.37 µM in assay [3] (ALK3, test compound 370 nM (asterisk footnote), read-out: inhibition rate at 370 nM) is 55.2%; in assay [4], 82.8%. Take `O=C(c1ccc(Nc2nccc(-c3cn(Cc4ccccc4)nc3-c3cccnc3)n2)cc1)N1CCNCC1` [Example 138, (4-((4-(1-Benzyl-3-(pyridin-3-yl)-1H-pyrazol-4-yl)pyrimidin-2-yl)amino)phenyl) (piperazin-1-yl)methanone]: the IC50 in assay [2] (setting [5]) turned out to be 22.4 nM. Further, the inhibition at 0.3 µM in assay [4] (ALK6, test compound 300 nM) came to 83.8%. As to `Fc1ccc(Cn2cc(-c3ccnc(Nc4ccc(N5CCNCC5)cc4)n3)c(-c3cccnc3)n2)cc1` [Example 139, 4-(1-(4-Fluorobenzyl)-3-(pyridin-3-yl)-1H-pyrazol-4-yl)-N-(4-(piperazin-1-yl)phenyl)pyrimidin-2-amine], the IC50 in assay [2] (setting [5]) was determined as 16.2 nM. Besides, the inhibition at 0.3 µM amounted to 54.3% in assay [3] (ALK3, test compound 300 nM) and 90.6% in assay [4] (ALK6, test compound 300 nM). As for `CCn1cc(-c2ccnc(Nc3ccc(N4CC5CCC(C4)N5)cc3)n2)c(-c2cccnc2)n1` [Example 143, N-(4-(3,8-Diazabicyclo[3.2.1]octan-3-yl)phenyl)-4-(1-ethyl-3-(pyridin-3-yl)-1H-pyrazol-4-yl)pyrimidin-2-amine], half-maximal inhibition in assay [2] (IC50) was put at 9.2 nM. For the same compound, the inhibition at 0.3 µM in assay [3] was 57%; in assay [4], 91%. In assay [2], `CCn1cc(-c2ccnc(Nc3ccc(N4CC5CCC(C4)N5)nc3)n2)c(-c2cccnc2)n1` [Example 144, N-(6-(3,8-Diazabicyclo[3.2.1]octan-3-yl)pyridin-3-yl)-4-(1-ethyl-3-(pyridin-3-yl)-1H-pyrazol-4-yl)pyrimidin-2-amine] showed an IC50 of 16.7 nM. In addition, the inhibition at 0.3 µM in assay [3] was determined as 46%; in assay [4], 86%. For the compound `CCn1cc(-c2ccnc(Nc3ccc(N4CCNCC4)cc3)n2)c(-c2cncc(F)c2)n1` [Example 148, 4-(1-Ethyl-3-(5-fluoropyridin-3-yl)-1H-pyrazol-4-yl)-N-(4-(piperazin-1-yl)phenyl)pyrimidin-2-amine], the figures for the IC50 in assay [1] and in assay [2] (setting [5]) were 51 nM and 14.8 nM, respectively. The inhibition at 0.3 µM in assay [4] (ALK6, test compound 300 nM) was 79.4%. For the compound `N#Cc1cccc(Cn2cc(-c3ccnc(Nc4ccc(N5CCNCC5)cc4)n3)c(-c3cccnc3)n2)c1` [Example 156, 3-((4-(2-((4-(Piperazin-1-yl)phenyl)amino)pyrimidin-4-yl)-3-(pyridin-3-yl)-1H-pyrazol-1-yl)methyl)benzonitrile], the IC50 in assay [1] was determined as 6.1 nM; in assay [2] (setting [5]), 24.3 nM.

With `CCn1cc(-c2ccnc(Nc3ccc(N4CCC[C@@H](N)C4)cc3)n2)c(-c2cccnc2)n1` [Example 161, (R)-N-(4-(3-Aminopiperidin-1-yl)phenyl)-4-(1-ethyl-3-(pyridin-3-yl)-1H-pyrazol-4-yl)pyrimidin-2-amine], the IC50 in assay [2] (setting [5]) came out at 12.6 nM. For the compound `CCn1cc(-c2ccnc(Nc3ccc(OC4CCNCC4F)cc3)n2)c(-c2cccnc2)n1` (stereo not shown) [Example 164, 4-(1-Ethyl-3-(pyridin-3-yl)-1H-pyrazol-4-yl)-N-(4-((3-fluoropiperidin-4-yl)oxy)phenyl) pyrimidin-2-amine], the IC50 in assay [2] (setting [5]) worked out at 11.4 nM. Consider `CCn1cc(-c2ccnc(Nc3cccc(OC4CCNCC4)c3)n2)c(-c2cccnc2)n1` [Example 165, 4-(1-Ethyl-3-(pyridin-3-yl)-1H-pyrazol-4-yl)-N-(3-(piperidin-4-yloxy)phenyl) pyrimidin-2-amine], for which the IC50 was determined as 57 nM in assay [1] and 22.6 nM in assay [2] (setting [5]). With `CCn1cc(-c2nc(Nc3ccc(N4CCNCC4)cc3)ncc2F)c(-c2cccnc2)n1` [Example 166, 4-(1-Ethyl-3-(pyridin-3-yl)-1H-pyrazol-4-yl)-5-fluoro-N-(4-(piperazin-1-yl)phenyl)pyrimidin-2-amine], the IC50 in assay [2] (setting [5]) stood at 40 nM. The same measure, in the same setting: next, `CCn1cc(-c2ccnc(Nc3ccc4c(c3)NCCC4)n2)c(-c2cccnc2)n1` [Example 170, N-(4-(1-Ethyl-3-(pyridin-3-yl)-1H-pyrazol-4-yl)pyrimidin-2-yl)-1,2,3,4-tetrahydroquinolin-7-amine]: 22.7 nM; `CCn1cc(-c2ccnc(Nc3ccc4c(c3)CCN(CC(=O)O)C4)n2)c(-c2cccnc2)n1` [Example 172, 2-(6-((4-(1-ethyl-3-(pyridin-3-yl)-1H-pyrazol-4-yl)pyrimidin-2-yl)amino)-3,4-dihydroisoquinolin-2(1H)-yl)acetic acid]: 38.3 nM; `CCn1cc(-c2ccnc(Nc3ccc(N4CCN(CC(=O)O)CC4)cc3)n2)c(-c2cccnc2)n1` [Example 173, 2-(4-(4-((4-(1-Ethyl-3-(pyridin-3-yl)-1H-pyrazol-4-yl)pyrimidin-2-yl)amino)phenyl)piperazin-1-yl)acetic acid]: 47.6 nM.

Take `CCn1cc(-c2ccnc(Nc3ccc(N4CCN(C(=O)CO)CC4)cc3)n2)c(-c2cccnc2)n1` [Example 174, 1-(4-(4-((4-(1-ethyl-3-(pyridin-3-yl)-1H-pyrazol-4-yl)pyrimidin-2-yl)amino)phenyl)piperazin-1-yl)-2-hydroxyethan-1-one]: the IC50 in assay [2] (setting [5]) came to 37 nM. `CCn1cc(-c2ccnc(Nc3ccc(N4CCC(N)(CC)CC4)cc3)n2)c(-c2cccnc2)n1` [Example 177, N-(4-(4-Amino-4-ethylpiperidin-1-yl)phenyl)-4-(1-ethyl-3-(pyridin-3-yl)-1H-pyrazol-4-yl)pyrimidin-2-amine]: the IC50 is 3.5 nM in assay [1] and 8.5 nM in assay [2] (setting [5]). `CCn1cc(-c2ccnc(Nc3ccc(N4CCC(C(C)(C)N)CC4)cc3)n2)c(-c2cccnc2)n1` [Example 178]: in assay [2] (setting [5]), the IC50 was determined as 14.8 nM. Same read-out and setting: next, `CCn1cc(-c2ccnc(Nc3ccc(-n4cnc(N5CCN(C)CC5)n4)cc3)n2)c(-c2cccnc2)n1` [Example 180, 4-(1-ethyl-3-(pyridin-3-yl)-1H-pyrazol-4-yl)-N-(4-(3-(4-methylpiperazin-1-yl)-1H-1,2,4-triazol-1-yl)phenyl)pyrimidin-2-amine]: 9.1 nM.
